Experimental data: the supplement of paper PMC11451515

Key:
Details in all cases: 48 h
NOMO1 [1] = test: cell viability relative to DMSO control; higher = less cytotoxic
Outline: (§1)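 Cells were incubated for 48 h at 37°C before CellTiter-Glo One luminescence was read. The cells were NOMO1 or SEM (500 cells/well) or P12-Ichikawa (1000 cells/well) leukemia cells, adapted for at least four passages in each medium and seeded in 1536-well plates (5 μl). Dosing used library compounds in DMSO applied by pin over 11 threefold points, 47 μM to 0.79 nM. Viability is the per-plate percentage of DMSO wells, with cell-free wells as background.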

P12-Ichikawa [2] = test: as above
Outline: as §1

SEM cells [3] = test: as above
Outline: as §1

NOMO1 [4] = test: AUC of viability dose-response curve (% viability x log10 dose units); higher = less sensitive
Outline: (§2)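 Area under the curve was integrated by trapezoidal rule from a log-logistic fit of normalised viability, with curves exceeding full viability scaled and quality-control failures removed. The fit had four parameters over log10 doses. Viability came from CellTiter-Glo One luminescence, normalised per plate to DMSO and cell-free wells, after leukemia cells adapted to each medium (500 or 1000 cells/well, 1536-well plates) were exposed to library compounds in DMSO for 48 h at 37°C. The 11 threefold doses ran from 47 μM to 0.79 nM.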

P12-Ichikawa [5] = test: as above
Outline: as §2

SEM cells [6] = test: as above
Outline: as §2

CCOC(=O)C/1=C(O)/C(=O)N(CC2=CC=CC=C2)C1
cell viability [%]
Details	NOMO1 [1]	P12-Ichikawa [2]	SEM cells [3]
HPLM + 10% dialyzed FBS, 0.000781 µM	95.4	114	97.8
HPLM + 10% dialyzed FBS, 0.00234 µM	113	114	98.5
HPLM + 10% dialyzed FBS, 0.00702 µM	129	114	98
HPLM + 10% dialyzed FBS, 0.0211 µM	124	112	91
HPLM + 10% dialyzed FBS, 0.0632 µM	110	111	110
HPLM + 10% dialyzed FBS, 0.19 µM	106	113	108
HPLM + 10% dialyzed FBS, 0.569 µM	103	109	108
HPLM + 10% dialyzed FBS, 1.71 µM	122	109	120
HPLM + 10% dialyzed FBS, 5.12 µM	114	99.1	111
HPLM + 10% dialyzed FBS, 15.4 µM	103	99.8	106
HPLM + 10% dialyzed FBS, 46.1 µM	95.6	100	86.1
RPMI 5 mM glucose + 10% FBS, 0.000781 µM	102	116	99
RPMI 5 mM glucose + 10% FBS, 0.00234 µM	113	121	104
RPMI 5 mM glucose + 10% FBS, 0.00702 µM	98.3	115	94.4
RPMI 5 mM glucose + 10% FBS, 0.0211 µM	99.2	119	90.1
RPMI 5 mM glucose + 10% FBS, 0.0632 µM	98.6	128	111
RPMI 5 mM glucose + 10% FBS, 0.19 µM	99.5	120	111
RPMI 5 mM glucose + 10% FBS, 0.569 µM	111	106	99.4
RPMI 5 mM glucose + 10% FBS, 1.71 µM	95.9	122	99.2
RPMI 5 mM glucose + 10% FBS, 5.12 µM	95.7	114	98.3
RPMI 5 mM glucose + 10% FBS, 15.4 µM	95.7	106	94.9
RPMI 5 mM glucose + 10% FBS, 46.1 µM	103	99.5	83.9
RPMI 5 mM glucose + 10% dialyzed FBS, 0.000781 µM	102	107	119
RPMI 5 mM glucose + 10% dialyzed FBS, 0.00234 µM	118	109	113
RPMI 5 mM glucose + 10% dialyzed FBS, 0.00702 µM	110	123	105
RPMI 5 mM glucose + 10% dialyzed FBS, 0.0211 µM	109	111	125
RPMI 5 mM glucose + 10% dialyzed FBS, 0.0632 µM	110	113	109
RPMI 5 mM glucose + 10% dialyzed FBS, 0.19 µM	115	111	111
RPMI 5 mM glucose + 10% dialyzed FBS, 0.569 µM	105	120	108
RPMI 5 mM glucose + 10% dialyzed FBS, 1.71 µM	111	106	125
RPMI 5 mM glucose + 10% dialyzed FBS, 5.12 µM	91.2	114	108
RPMI 5 mM glucose + 10% dialyzed FBS, 15.4 µM	103	107	106
RPMI 5 mM glucose + 10% dialyzed FBS, 46.1 µM	95.1	99.2	93.7

AUC of viability dose-response curve
Details	NOMO1 [4]	P12-Ichikawa [5]	SEM cells [6]
HPLM + 10% dialyzed FBS	459	462	463
RPMI 5 mM glucose + 10% FBS	446	466	469
RPMI 5 mM glucose + 10% dialyzed FBS	462	468	468

C\C1=C(\C=C(C#N)/C(=O)N1)C2=C[N]3C=CN=C3C=C2
cell viability [%]
Details	NOMO1 [1]	P12-Ichikawa [2]	SEM cells [3]
HPLM + 10% dialyzed FBS, 0.000781 µM	69.8	88.1	66.9
HPLM + 10% dialyzed FBS, 0.00234 µM	82.7	82.3	77.5
HPLM + 10% dialyzed FBS, 0.00702 µM	88.2	87.3	81.6
HPLM + 10% dialyzed FBS, 0.0211 µM	79.1	89.8	75
HPLM + 10% dialyzed FBS, 0.0632 µM	80.9	87.1	82.2
HPLM + 10% dialyzed FBS, 0.19 µM	79.9	84.6	72.6
HPLM + 10% dialyzed FBS, 0.569 µM	83.7	89.9	71.8
HPLM + 10% dialyzed FBS, 1.71 µM	89.3	88.5	87.4
HPLM + 10% dialyzed FBS, 5.12 µM	97.9	85.1	91.4
HPLM + 10% dialyzed FBS, 15.4 µM	94.4	91.5	83.3
HPLM + 10% dialyzed FBS, 46.1 µM	93	92.5	94.7
RPMI 5 mM glucose + 10% FBS, 0.000781 µM	85.2	88.8	73.7
RPMI 5 mM glucose + 10% FBS, 0.00234 µM	82.2	80.1	88
RPMI 5 mM glucose + 10% FBS, 0.00702 µM	80.6	82.9	82.8
RPMI 5 mM glucose + 10% FBS, 0.0211 µM	80.9	88	96.8
RPMI 5 mM glucose + 10% FBS, 0.0632 µM	84.5	79.3	90.4
RPMI 5 mM glucose + 10% FBS, 0.19 µM	80.1	79.2	73.6
RPMI 5 mM glucose + 10% FBS, 0.569 µM	94.5	80	94.6
RPMI 5 mM glucose + 10% FBS, 1.71 µM	72.7	81.7	85.9
RPMI 5 mM glucose + 10% FBS, 5.12 µM	81.1	86.6	102
RPMI 5 mM glucose + 10% FBS, 15.4 µM	84.8	80.5	99.2
RPMI 5 mM glucose + 10% FBS, 46.1 µM	78.9	84.7	89.6
RPMI 5 mM glucose + 10% dialyzed FBS, 0.000781 µM	78.8	81.7	79.6
RPMI 5 mM glucose + 10% dialyzed FBS, 0.00234 µM	81.1	72.9	72.2
RPMI 5 mM glucose + 10% dialyzed FBS, 0.00702 µM	88.1	78.3	87.6
RPMI 5 mM glucose + 10% dialyzed FBS, 0.0211 µM	83.4	78.7	88
RPMI 5 mM glucose + 10% dialyzed FBS, 0.0632 µM	84.2	81.5	81.8
RPMI 5 mM glucose + 10% dialyzed FBS, 0.19 µM	84.5	78.8	77.7
RPMI 5 mM glucose + 10% dialyzed FBS, 0.569 µM	90.2	80.7	86.6
RPMI 5 mM glucose + 10% dialyzed FBS, 1.71 µM	92	78.3	98.8
RPMI 5 mM glucose + 10% dialyzed FBS, 5.12 µM	91.3	80.4	86.9
RPMI 5 mM glucose + 10% dialyzed FBS, 15.4 µM	85.3	74.9	93.4
RPMI 5 mM glucose + 10% dialyzed FBS, 46.1 µM	74.6	77.9	94

AUC of viability dose-response curve
Details	NOMO1 [4]	P12-Ichikawa [5]	SEM cells [6]
HPLM + 10% dialyzed FBS	407	419	383
RPMI 5 mM glucose + 10% FBS	393	394	424
RPMI 5 mM glucose + 10% dialyzed FBS	405	375	411
